“Also recorded” adds a separate entry of the source. Where two headings read alike, the source gives them in different places.
Legend:
[1] = tested on: TGase I (keratinocyte transglutaminase level); test: Transglutaminase (TGase I) ELISA assay (keratinocyte differentiation); format: cell-based, human
Experimental: (§1) Human keratinocytes, isolated from neonatal foreskin by trypsin treatment were grown in Dulbecco Modification Eagle (DME) Hams F12 (1:1) medium/10% fetal calf serum in the presence of irradiated 3T3 mouse fibroblasts for establishing dividing keratinocyte colonies. Cells were grown under the above condition until their second passage and kept frozen for future use. […] On day 7, when the cells were 80-90% confluent, they were trypsinized and plated in the serum-free medium for the various experiments.
During the process of terminal differentiation in the epidermis, a 15 nm thick layer of protein, known as the cornified envelope (CE) is formed on the inner surface of the cell periphery. The CE is composed of numerous distinct proteins which have been cross-linked together by the formation of N^ε -(γ-glutamyl) lysine isodipeptide bonds catalyzed by the action of at least two different transglutaminases (TGases) expressed in the epidermis. TGase I is expressed in abundance in the differentiated layers of the epidermis, especially the granular layer, but is absent in the undifferentiated basal epidermis. Thus TGase I is a useful marker of epidermal keratinocyte differentiation with high TGase I levels indicating a more differentiated state. An ELISA based TGase I assay, using a TGase I antibody, was used to assess the state of differentiation of the cultured keratinocytes in the examples that follow.
Keratinocytes (cultured as described above) were plated in 96 well plates at a density of 3,000 cells per well in 200 μl media. After incubation for four days the media was changed to media containing test compounds (six replicates per test). The cells were cultured for a further 72 hours after which time the media was aspirated and the plates stored at -70° C. Plates were removed from the freezer, and the cells washed with PBS. 100 μl sterile water was added and the cells were freeze fractured by freezing at -70° C. then thawing. The cells were incubated for one hour at room temperature (R/T) with PBS/3% BSA (wash buffer, bovine serum albumin), then rinsed with a fresh aliquot of wash buffer. Cells were incubated with 50 μl of primary antibodies monoclonal anti-human transglutaminase (IgG) obtained from Amersham (mouse) diluted 1:300 in wash buffer for one hour, 37° C. then rinsed two times with wash buffer. Cells were then incubated with 50 μl of secondary antibody (Feb fragment, peroxidase conjugated anti-mouse IgG obtaining from Amersham) diluted 1:200 in wash buffer for one hour at 37° C., then rinsed two times with wash buffer. Cells were incubated with substrate solution (4 mg o-phenylene diamine and 3.3 μl 30% H2 O2 in 10 ml 0.1M citrate buffer pH 5.0) for five minutes, R/T, in darkness (under aluminum foil). The reaction was stopped by the addition of 50 μl 4N H2 SO4. The absorbance of samples was read at 492 nm in the plate reader. Out of the six replicates, four were treated with both antibodies, two were treated only with the secondary antibody (i.e., to determine background binding of enzyme conjugated Ab). TGase levels were determined by subtracting background from the readings from each treatment and determining mean ±s.d. for the replicates exposed to both Ab.

Human keratinocytes = test: 3H-Thymidine incorporation (keratinocyte proliferation); format: cell-based; conditions: for increase of thymidine incorporation/proliferation over ethanol control: retinol 2.5×10^-8 M; for activity at 0.025 µM: 2.5 × 10^-8 M
Experimental: as §1
The incorporation of […] by cultured keratinocytes was used as an assay of keratinocyte proliferation. Thymidine is one of four deoxynucleosides which are the monomeric units of DNA, the universal library of genetic information in the animal kingdom. Prior to cell division of a somatic cell such as a keratinocyte, the complete genome of the cell undergoing cell division is replicated. This involves large scale DNA synthesis by the cell and enables both daughter cells to receive identical copies of the genetic material. When ^3 H-thymidine is included in the culture media of keratinocytes which are synthesizing DNA in preparation for cell division then the labelled nucleoside is incorporated into the newly synthesized DNA. The extent of incorporation of ^3 H-thymidine into a population of cells is proportional to the rate of DNA synthesis by this population of cells and therefore an indication of their cellular proliferation.
Keratinocytes (that were cultured as described above) were plated in 24 well plates at a density of 40,000 cells per well in 1 ml media. After incubation for four days or until the cells were 60-70% confluent, the media was changed. Test compounds were added (in triplicate) to the wells 24 hours after the media change, and four hours later 1μCi^3 H-Thymidine in 50 μl media was added per well. Cells were incubated for a further 24 hours. Media was removed from the cells, 10% ice cold trichloroacetic acid (TCA) added and plates were incubated on ice for 30 minutes. Cells were washed five times with 5% TCA and allowed to dissolve in 500 μl 0.1M NaOH for at least one hour (usually overnight). The preparations were neutralized with 0.1M HCl; 50 μl of the cell preparation was used to determine total protein content. Disintegrations per minute (DPM) from ^3 H labelling of DNA was determined by liquid scintillation counting of […] of the cell preparation. Thymidine incorporation results were expressed as DPM/μg protein.

[2] = Table 3B, RA, RP 2.5 × 10^-7 M, linoleoyl-DEA 10^-6 M, alone or combined, n = 3
[3] = Table 4A, RA, retinol 2.5 × 10^-7 M, cocoyl-DEA 10^-7 M, alone or combined, n = 3
[4] = Table 4B, RA, retinol 2.5 × 10^-8 M, cocoyl-MEA 10^-8 M, alone or combined, n = 3
[5] = Table 5B, RA, retinol 2.5 × 10^-8 M, methyl linoleate 10^-8 M, alone or combined, n = 3
[6] = concentrations as in the respective Example

What does the source list for `CC1=C(/C=C/C(C)=C/C=C/C(C)=C/C(=O)O)C(C)(C)CCC1` [RA, retinoic acid]?
activity at 0.25 µM ([1]; Homo sapiens, Keratinocyte, 72 h, Table 1B, 2.5 × 10^-7 M, 72 h, n = 3, read-out: Transglutaminase level, % control): 20%; activity at 0.025 µM ([1]; Homo sapiens, Keratinocyte, 72 h, Table 1B, 2.5 × 10^-8 M, 72 h, n = 3, read-out: Transglutaminase level, % control): 62%; activity at 0.0025 µM ([1]; Homo sapiens, Keratinocyte, 72 h, Table 1B, 2.5 × 10^-9 M, 72 h, n = 3, read-out: Transglutaminase level, % control): 84%; activity at 1 µM ([1]; Homo sapiens, Keratinocyte, Table 5A, RA, retinol 2.5 × 10^-7 M, linoleic acid 10^-6 M, alone or combined, n = 3, read-out: TGase (TG1) level, % control): 0%; activity at 0.25 µM ([1]; Homo sapiens, Keratinocyte, Table 8A, 2.5 × 10^-7 M, n = 3, read-out: TGase, % control): 34%; activity at 0.025 µM ([1]; Homo sapiens, Keratinocyte, Table 8A, 2.5 × 10^-8 M, n = 3, read-out: TGase, % control): 64%; activity at 0.0025 µM ([1]; Homo sapiens, Keratinocyte, Table 8A, 2.5 × 10^-9 M, n = 3, read-out: TGase, % control): 87%; activity at 0.25 µM ([1]; Homo sapiens, Keratinocyte, Table 8B, 2.5 × 10^-7 M, n = 3, read-out: TGase, % control): 12%; mean Transglutaminase ELISA level ± s.d ([1]; Table 1B, 2.5 × 10^-7 M, 72 h, n = 3): 0.088 ± 0.015; mean Transglutaminase ELISA level ± s.d ([1]; Table 1B, 2.5 × 10^-8 M, 72 h, n = 3): 0.268 ± 0.068; mean Transglutaminase ELISA level ± s.d ([1]; Table 1B, 2.5 × 10^-9 M, 72 h, n = 3): 0.360 ± 0.067; TGase (TG1) level, % control ([1]; Table 2B, RA, ROH 2.5 × 10^-7 M, linoleoyl-DEA 10^-6 M, alone or combined, 72 h, n = 9): 28%; mean TGase ± s.d ([1]; Table 2B, RA, ROH 2.5 × 10^-7 M, linoleoyl-DEA 10^-6 M, alone or combined, 72 h, normalized to ethanol control, n = 9): 0.283 ± 0.470; TGase (TG1) level, % control [1, 2]: 33%; mean TGase ± s.d [1, 2]: 0.073 ± 0.022; TGase (TG1) level, % control [1, 3]: 33%; mean TGase ± s.d [1, 3]: 0.058 ± 0.098; TGase (TG1) level, % control [1, 4]: 29%; mean TGase ± s.d [1, 4]: 0.036 ± 0.009; mean TGase ± s.d ([1]; Table 5A, RA, retinol 2.5 × 10^-7 M, linoleic acid 10^-6 M, alone or combined, n = 3): -0.004 ± 0.103; TGase (TG1) level, % control [1, 5]: 32%; mean TGase ± s.d [1, 5]: 0.092 ± 0.030; mean TGase level ± s.d ([1]; Table 6A (Effect on Keratinocyte TGase), RA, ROH 2.5 × 10^-7 M, formamide 10^-7 M, alone or combined, 72 h, n = 3): 0.137 ± 0.024; TGase (TG1) level, % control ([1]; Table 6A, RA, ROH 2.5 × 10^-7 M, formamide 10^-7 M, alone or combined, 72 h, n = 3): 28%; mean TGase level ± s.d ([1]; Table 6B (Effect on Keratinocyte TGase), RA, ROH 2.5 × 10^-7 M, acetamide 10^-7 M, alone or combined, 72 h, n = 3): 0.226 ± 0.069; TGase (TG1) level, % control ([1]; Table 6B, RA, ROH 2.5 × 10^-7 M, acetamide 10^-7 M, alone or combined, 72 h, n = 3): 46%; mean TGase level ± s.d ([1]; Table 6C (Effect on Keratinocyte TGase), RA, ROH 2.5 × 10^-7 M, pentanoyl-DEA 10^-7 M, alone or combined, 72 h, n = 3): 0.088 ± 0.015; mean TGase ± s.d ([1]; Table 8A, 2.5 × 10^-7 M, n = 3): 0.073 ± 0.022; mean TGase ± s.d ([1]; Table 8A, 2.5 × 10^-8 M, n = 3): 0.138 ± 0.034; mean TGase ± s.d ([1]; Table 8A, 2.5 × 10^-9 M, n = 3): 0.190 ± 0.091; mean TGase ± s.d ([1]; Table 8B, 2.5 × 10^-7 M, n = 3): 0.015 ± 0.025; effect on keratinocyte TG1 levels / differentiation, in words [1, 6]: decreased keratinocyte differentiation; also recorded: repressed keratinocyte TG 1 levels completely; also recorded: significantly decreased keratinocyte TGase levels; also recorded: decreased transglutaminase I levels; increase of thymidine incorporation/proliferation over ethanol control (Human keratinocytes; Example 2A, RA, linoleoyl-DEA 10^-9 M): 26%; increase of thymidine incorporation/proliferation over ethanol control (Human keratinocytes; Example 4C, RA, palmitoyl-MEA 10^-6 M): 16%; increase of thymidine incorporation/proliferation over ethanol control (Human keratinocytes; Example 4D, RA, linoleoyl-MEA 10^-9 M): 47%; activity at 0.25 µM (Human keratinocytes; Homo sapiens, Keratinocyte, 24 h, Table 1A, first RA/ROH pair, 2.5 × 10^-7 M, 24 h, n = 3, read-out: thymidine incorporation, % control): 118%; activity at 0.25 µM (Human keratinocytes; Homo sapiens, Keratinocyte, 24 h, Table 1A, second RA/ROH pair, 2.5 × 10^-7 M, 24 h, n = 3, read-out: thymidine incorporation, % control): 128%; activity at 0.25 µM (Human keratinocytes; Homo sapiens, Keratinocyte, 24 h, Table 1A, third RA/ROH pair, 2.5 × 10^-7 M, 24 h, n = 3, read-out: thymidine incorporation, % control): 122%; activity at 0.0025 µM (Human keratinocytes; Homo sapiens, Keratinocyte, 24 h, Table 3A, RA 2.5 × 10^-9 M, RP 2.5 × 10^-7 M, linoleoyl-DEA 10^-8 M, alone or combined, n = 3, read-out: thymidine incorporation, % control): 117%; activity at 0.25 µM (Human keratinocytes; Homo sapiens, Keratinocyte, 24 h, Table 7A, 2.5 × 10^-7 M, 24 h, n = 9, read-out: mean Thymidine incorp/μg protein ± s.d): 113 ± 10.9%; activity at 0.25 µM (Human keratinocytes; Homo sapiens, Keratinocyte, 24 h, Table 7A, 2.5 × 10^-7 M, 24 h, n = 9, read-out: thymidine incorporation, % control): 113%; activity at 0.025 µM (Human keratinocytes; Homo sapiens, Keratinocyte, 24 h, Table 7A, 24 h, n = 9, read-out: mean Thymidine incorp/μg protein ± s.d): 125 ± 13.9%; activity at 0.025 µM (Human keratinocytes; Homo sapiens, Keratinocyte, 24 h, Table 7A, 24 h, n = 9, read-out: thymidine incorporation, % control): 126%; activity at 0.0025 µM (Human keratinocytes; Homo sapiens, Keratinocyte, 24 h, Table 7A, 2.5 × 10^-9 M, 24 h, n = 9, read-out: mean Thymidine incorp/μg protein ± s.d): 121 ± 12.8%; activity at 0.0025 µM (Human keratinocytes; Homo sapiens, Keratinocyte, 24 h, Table 7A, 2.5 × 10^-9 M, 24 h, n = 9, read-out: thymidine incorporation, % control): 121%; activation at 0.0025 µM (Human keratinocytes; Homo sapiens, Keratinocyte, read-out: increase of thymidine incorporation/proliferation over ethanol control): 17%; mean Thymidine incorp./μg protein ± s.d (Human keratinocytes; Table 1A, first RA/ROH pair, 2.5 × 10^-7 M, 24 h, n = 3): 2475 ± 116 DPM/μg protein; mean Thymidine incorp./μg protein ± s.d (Human keratinocytes; Table 1A, second RA/ROH pair, 2.5 × 10^-7 M, 24 h, n = 3): 2686 ± 72 DPM/μg protein; mean Thymidine incorp./μg protein ± s.d (Human keratinocytes; Table 1A, third RA/ROH pair, 2.5 × 10^-7 M, 24 h, n = 3): 2556 ± 80 DPM/μg protein; mean Thymidine incorp./μg protein ± s.d (Human keratinocytes; Table 2A, RA, ROH 2.5 × 10^-8 M, linoleoyl-DEA 10^-9 M, alone or combined, 24 h, normalized to ethanol control, n = 9): 1.255 ± 0.139; mean Thymidine incorp./μg protein ± s.d (Human keratinocytes; Table 3A, RA 2.5 × 10^-9 M, RP 2.5 × 10^-7 M, linoleoyl-DEA 10^-8 M, alone or combined, n = 3): 1990 ± 61 DPM/μg protein; mean Thymidine incorp./μg protein ± s.d (Human keratinocytes; Table 4C, RA, retinol 2.5 × 10^-8 M, palmitoyl-MEA 10^-6 M, alone or combined, control = 1.000, n = 3): 1.164 ± 0.113; thymidine incorporation, % control (Human keratinocytes; Table 4C, RA, retinol 2.5 × 10^-8 M, palmitoyl-MEA 10^-6 M, alone or combined, n = 3, 1440 min): 116%; thymidine incorporation, % control (Human keratinocytes; Table 4D, RA, ROH 2.5 × 10^-8 M, linoleoyl-MEA 10^-9 M, alone or combined, 24 h, n = 3): 147%; mean Thymidine incorp./μg protein ± s.d (Human keratinocytes; Table 4D, RA, ROH 2.5 × 10^-8 M, linoleoyl-MEA 10^-9 M, alone or combined, 24 h, normalized to ethanol control, n = 3): 1.47 ± 0.36; effect on keratinocyte proliferation, in words (Human keratinocytes; [6]): significantly increased keratinocyte proliferation; also recorded: increased thymidine incorporation
